Molecules are shown by their SMILES. In brackets after ≈: the same amount, converted by molar mass.

Chain of S. aureus GyrB ATPase (P0AES4 whole entry): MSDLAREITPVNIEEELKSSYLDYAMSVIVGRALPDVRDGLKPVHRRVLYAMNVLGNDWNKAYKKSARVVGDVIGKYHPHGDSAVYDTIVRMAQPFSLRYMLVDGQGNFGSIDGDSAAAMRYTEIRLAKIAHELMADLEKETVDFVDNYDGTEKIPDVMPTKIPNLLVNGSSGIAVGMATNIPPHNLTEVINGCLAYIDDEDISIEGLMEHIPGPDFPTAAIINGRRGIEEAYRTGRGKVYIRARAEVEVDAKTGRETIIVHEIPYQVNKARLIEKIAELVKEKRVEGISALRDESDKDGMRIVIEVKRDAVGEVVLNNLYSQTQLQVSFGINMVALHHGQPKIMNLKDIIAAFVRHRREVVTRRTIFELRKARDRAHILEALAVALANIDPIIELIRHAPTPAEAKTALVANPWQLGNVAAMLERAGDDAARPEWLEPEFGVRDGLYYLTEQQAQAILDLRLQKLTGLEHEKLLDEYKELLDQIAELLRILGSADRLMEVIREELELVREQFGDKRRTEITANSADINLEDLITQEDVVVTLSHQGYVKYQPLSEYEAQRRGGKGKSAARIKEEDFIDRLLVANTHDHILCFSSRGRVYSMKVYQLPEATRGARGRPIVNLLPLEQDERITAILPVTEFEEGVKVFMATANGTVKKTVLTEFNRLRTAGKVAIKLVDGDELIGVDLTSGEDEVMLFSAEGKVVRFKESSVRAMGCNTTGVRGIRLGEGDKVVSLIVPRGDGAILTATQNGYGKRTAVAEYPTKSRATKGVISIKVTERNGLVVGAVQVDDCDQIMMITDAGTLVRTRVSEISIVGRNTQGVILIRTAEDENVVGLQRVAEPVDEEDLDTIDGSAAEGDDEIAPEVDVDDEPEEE
Chain of S. aureus GyrB ATPase (P0A0K8 whole entry): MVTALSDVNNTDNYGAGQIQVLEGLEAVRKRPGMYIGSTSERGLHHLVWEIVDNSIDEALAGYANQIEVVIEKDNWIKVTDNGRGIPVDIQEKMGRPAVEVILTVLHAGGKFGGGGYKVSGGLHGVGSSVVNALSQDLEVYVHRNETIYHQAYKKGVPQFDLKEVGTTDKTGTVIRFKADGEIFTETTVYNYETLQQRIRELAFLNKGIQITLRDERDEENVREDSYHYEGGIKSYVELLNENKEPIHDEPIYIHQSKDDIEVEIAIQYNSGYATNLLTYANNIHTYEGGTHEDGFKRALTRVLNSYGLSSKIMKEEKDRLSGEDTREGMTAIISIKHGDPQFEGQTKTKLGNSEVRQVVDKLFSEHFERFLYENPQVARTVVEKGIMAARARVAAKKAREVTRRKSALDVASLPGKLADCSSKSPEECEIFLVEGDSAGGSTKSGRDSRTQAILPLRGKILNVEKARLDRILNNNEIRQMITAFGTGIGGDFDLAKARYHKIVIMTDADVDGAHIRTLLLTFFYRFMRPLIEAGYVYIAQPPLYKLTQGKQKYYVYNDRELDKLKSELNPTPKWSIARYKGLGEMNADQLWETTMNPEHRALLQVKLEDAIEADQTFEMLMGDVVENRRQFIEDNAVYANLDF

In one experiment the target is S. aureus GyrB ATPase (Staphylococcus aureus, UniProt P0A0K8). Description: S. aureus GyrB ATPase inhibition (ammonium molybdate/malachite green phosphate detection). As to conditions: compound concentration of 1 μM. It counts as biochemical. In outline:
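E. coli GyrA and S. aureus GyrB (250 pM each) with sheared salmon sperm DNA and 250 μM ATP, pH 7.5 Hepes buffer. Released phosphate detected by malachite green/ammonium molybdate at 650 nm; percent inhibition at 1 μM compound unless noted, normalized to 2% DMSO (0%) and EDTA (100%) controls.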
Turning to `COCCn1ccnc1-c1nc(N2CC[C@@H](NC(=O)c3[nH]c(C)c(Cl)c3Cl)[C@@H](F)C2)sc1C(=O)O` [Example 26, 2-((3S,4R)-4-{[(3,4-Dichloro-5-methyl-1H-pyrrol-2-yl)carbonyl]amino}-3-fluoropiperidin-1-yl)-4-[1-(2-methoxyethyl)-1H-imidazol-2-yl]-1,3-thiazole-5-carboxylic acid], the inhibition at 1 µM amounted to 97.4%.

Turning to `Cc1[nH]c(C(=O)N[C@@H]2CCN(c3nc(-c4ncccc4F)c(C(=O)O)s3)C[C@@H]2OCc2ccccc2)c(Cl)c1Cl` [Example 144, 2-[(3S,4R)-3-(benzyloxy)-4-{[(3,4-dichloro-5-methyl-1H-pyrrol-2-yl)carbonyl]amino}piperidin-1-yl]-4-(3-fluoropyridin-2-yl)-1,3-thiazole-5-carboxylic acid], the inhibition at 1 µM was found to be 114%.

Consider `COc1cc(OC)nc(-c2nc(N3CC[C@@H](NC(=O)c4[nH]c(C)c(Cl)c4Cl)[C@@H](OC)C3)sc2C(=O)O)n1` [Example 11, 2-((3S,4R)-4-{[(3,4-Dichloro-5-methyl-1H-pyrrol-2-yl)carbonyl]amino}-3-methoxypiperidin-1-yl)-4-(4,6-dimethoxypyrimidin-2-yl)-1,3-thiazole-5-carboxylic acid], for which the inhibition at 1 µM amounted to 92%.

Turning to `CCOC(=O)c1sc(N2CC[C@@H](NC(=O)c3[nH]c(C)c(Cl)c3Cl)[C@@H](F)C2)nc1-c1ncccc1F` [Example 102, ethyl 2-((3S,4R)-4-(3,4-dichloro-5-methyl-1H-pyrrole-2-carboxamido)-3-fluoropiperidin-1-yl)-4-(3-fluoropyridin-2-yl)thiazole-5-carboxylate], the inhibition at 1 µM worked out at 81.4%.

Consider `Cc1[nH]c(C(=O)N[C@@H]2CCN(c3nc(-c4cn(C)cn4)c(C(=O)O)s3)C[C@@H]2F)c(Cl)c1Cl` [Example 41, 2-((3S,4R)-4-{[(3,4-Dichloro-5-methyl-1H-pyrrol-2-yl)carbonyl]amino}-3-fluoropiperidin-1-yl)-4-(1-methyl-1H-imidazol-4-yl)-1,3-thiazole-5-carboxylic acid], for which the inhibition at 1 µM came to 104%.

`CO[C@H]1CN(c2nc(-c3cn(C)nn3)c(C(=O)O)s2)CC[C@H]1NC(=O)c1[nH]c(C)c(Cl)c1C#N` [Example 120, 2-((3S,4R)-4-(4-chloro-3-cyano-5-methyl-1H-pyrrole-2-carboxamido)-3-methoxypiperidin-1-yl)-4-(1-methyl-1H-1,2,3-triazol-4-yl)thiazole-5-carboxylic acid]: the inhibition at 1 µM was found to be 104%.

Turning to `COc1ccnc(-c2nc(N3CC[C@@H](NC(=O)c4[nH]c(C)c(Cl)c4Cl)[C@@H](OC)C3)sc2C(=O)O)n1` [Example 42, 2-((3S,4R)-4-{[(3,4-Dichloro-5-methyl-1H-pyrrol-2-yl)carbonyl]amino}-3-methoxypiperidin-1-yl)-4-(4-methoxypyrimidin-2-yl)-1,3-thiazole-5-carboxylic acid], the inhibition at 1 µM came to 99.9%.

For the compound `Cc1[nH]c(C(=O)N[C@@H]2CCN(c3nc(-c4cnccn4)c(C(=O)O)s3)C[C@@H]2OCc2ccccc2)c(Cl)c1Cl` [Example 145, 2-[(3S,4R)-3-(benzyloxy)-4-{[(3,4-dichloro-5-methyl-1H-pyrrol-2-yl)carbonyl]amino}piperidin-1-yl]-4-(pyrazin-2-yl)-1,3-thiazole-5-carboxylic acid], the inhibition at 1 µM stood at 113%.

A further experiment deals with Streptococcus pneumoniae. Description: Bacterial susceptibility testing in liquid media (MIC). It counts as cell-based. As to conditions: 37° C., 24 hrs, lowest concentration reducing growth by 80% or more, read-out: MIC against Streptococcus pneumoniae. From the text: Compounds may be tested for antimicrobial activity by susceptibility testing in liquid media. Compounds may be dissolved in dimethylsulfoxide and tested in 10 doubling dilutions in the susceptibility assays. The organisms used in the assay may be grown overnight on suitable agar media and then suspended in a liquid medium appropriate for the growth of the organism. The suspension can be a 0.5 McFarland and a further 1 in 10 dilution can be made into the same liquid medium to prepare the final organism suspension in 100 μL. Plates can be incubated under appropriate conditions at 37° C. for 24 hrs prior to reading. The Minimum Inhibitory Concentration (MIC) may be determined as the lowest drug concentration able to reduce growth by 80% or more.
In the case of `COc1cc(OC)nc(-c2nc(N3CC[C@@H](NC(=O)c4[nH]c(C)c(Cl)c4Cl)[C@@H](OC)C3)sc2C(=O)O)n1` [Example 11, 2-((3S,4R)-4-{[(3,4-Dichloro-5-methyl-1H-pyrrol-2-yl)carbonyl]amino}-3-methoxypiperidin-1-yl)-4-(4,6-dimethoxypyrimidin-2-yl)-1,3-thiazole-5-carboxylic acid], the MIC was determined as 0.06 µg/mL (≈ 0.105 µM).

The values are drawn from US20080312255A1 (ASTRAZENECA AB, priority 2007, published 2008).
